# Where a name gives a salt, the structure may show the parent alone.
# Molecular target: T1, Human V1b receptor (Homo sapiens, UniProt P47901)
# T1 sequence (P47901 1-424): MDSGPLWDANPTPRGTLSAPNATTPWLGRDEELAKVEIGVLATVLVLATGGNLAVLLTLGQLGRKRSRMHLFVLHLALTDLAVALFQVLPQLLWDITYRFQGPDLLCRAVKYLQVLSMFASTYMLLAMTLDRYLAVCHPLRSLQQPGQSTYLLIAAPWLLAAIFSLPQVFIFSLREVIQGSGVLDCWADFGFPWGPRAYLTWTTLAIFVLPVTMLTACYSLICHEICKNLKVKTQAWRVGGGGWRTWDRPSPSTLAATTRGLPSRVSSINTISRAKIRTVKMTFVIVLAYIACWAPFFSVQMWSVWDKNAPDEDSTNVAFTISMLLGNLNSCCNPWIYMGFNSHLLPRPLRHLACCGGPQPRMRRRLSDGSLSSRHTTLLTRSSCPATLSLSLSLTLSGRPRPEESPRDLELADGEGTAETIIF
# Assay: Binding test for V1b receptor ([3H]AVP displacement, crude membrane preparation)
# Parameters: expressed in transfected cells; host or cells: 293FT cells (Invitrogen), transient expression; crude membrane preparation
# Conditions: [3H]AVP 0.4 to 1 nmol/L; membranes of 293FT cells transiently expressing human V1b receptor; room temperature, 60 minutes
# Method: Binding Test for V1b Receptor
# Human V1b receptor was transiently expressed in 293FT cells (Invitrogen). The cells were collected and were homogenated in a 15 mmol/L tris-hydrochloric acid buffer (pH 7.4, containing 2 mmol/L magnesium chloride, 0.3 mmol/L ethylenediaminetetracetic acid, and 1 mmol/L glycol ether diaminetetraacetic acid). The resulting homogenate was centrifuged at 50,000×g at 4° C. for 20 minutes. The precipitate was resuspended in a 75 mmol/L tris-hydrochloric acid buffer (pH 7.4, containing 12.5 mmol/L magnesium chloride, 0.3 mmol/L ethylenediaminetetracetic acid, 1 mmol/L glycol ether diamine tetraacetic acid, and 250 mmol/L sucrose) to give a crude membrane preparation, which was stored at −80° C. until the binding test. In the binding test, the crude membrane preparation was diluted with a 50 mmol/L tris-hydrochloric acid buffer (pH 7.4, containing 10 mmol/L magnesium chloride and 0.1% bovine serum albumin), and test compound was serially diluted with DMSO. The diluted crude membrane preparation was incubated with each test compound (final concentration of 0.01 nmol/L to 1 μmol/L) and [^3H]AVP (final concentration: 0.4 to 1 nmol/L) at room temperature for 60 minutes. After the incubation, the mixture was suction filtered through a GF/C filter pretreated with 0.3% polyethyleneimine. The GF/C filter was dried, and a scintillator was added thereto. The radioactivity remaining on the filter was measured using TopCount (PerkinElmer Inc.). The radioactivity in the presence of 10 μmol/L of unlabeled AVP was defined as 0%, and the radioactivity in the absence of unlabeled AVP was defined as 100%. A dose-response curve was plotted from radioactivities in the presence of a test compound at various concentrations, and the 50% inhibitory concentration (IC50 value) of the compound was calculated.
row,SMILES,IC50 [nM]
1,"COc1cc(-c2nn(-c3ccc(CCN4C[C@@H](C)O[C@@H](C)C4)cc3)c(=O)n2CC(=O)NC(C)C)ccc1F [Ca-20, 2-[1-(4-{2-[(2R,6S)-2,6-Dimethylmorpholin-4-yl]ethyl}phenyl)-3-(4-fluoro-3-methoxyphenyl)-5-oxo-1,5-dihydro-4H-1,2,4-triazol-4-yl]-N-(propan-2-yl)acetamide]",10 to 100
2,"COc1cc(-c2nn(-c3ccc(CCN4C(C)COCC4C)cc3)c(=O)n2CC(=O)NC(C)C)ccc1F (centres unmarked) [Ca-21, 2-[1-{4-[2-(3,5-Dimethylmorpholin-4-yl)ethyl]phenyl}-3-(4-fluoro-3-methoxyphenyl)-5-oxo-1,5-dihydro-4H-1,2,4-triazol-4-yl]-N-(propan-2-yl)acetamide trifluoroacetate]",10 to 100
3,"COc1cc(-c2nn(-c3ccc(CCN4CCOCC4C)cc3)c(=O)n2CC(=O)NC(C)C)ccc1F (centres unmarked) [Ca-22, 2-[3-(4-Fluoro-3-methoxyphenyl)-1-{4-[2-(3-methylmorpholin-4-yl)ethyl]phenyl}-5-oxo-1,5-dihydro-4H-1,2,4-triazol-4-yl]-N-(propan-2-yl)acetamide]",10 to 100
4,"CCC1COCCN1CCc1ccc(-n2nc(-c3ccc(F)c(OC)c3)n(CC(=O)NC(C)C)c2=O)cc1 (centres unmarked) [Ca-23, 2-[1-{4-[2-(3-Ethylmorpholin-4-yl)ethyl]phenyl}-3-(4-fluoro-3-methoxyphenyl)-5-oxo-1,5-dihydro-4H-1,2,4-triazol-4-yl]-N-(propan-2-yl)acetamide]",10 to 100
5,"COc1cc(-c2nn(-c3ccc(CCN4CCCC4)cc3)c(=O)n2CC(=O)NC(C)C)ccc1F [Ca-24, 2-[3-(4-Fluoro-3-methoxyphenyl)-5-oxo-1-{4-[2-(pyrrolidin-1-yl)ethyl]phenyl}-1,5-dihydro-4H-1,2,4-triazol-4-yl]-N-(propan-2-yl)acetamide formate]",10 to 100
6,"COc1cc(-c2nn(-c3ccc(CCN4CCN(C)CC4)cc3)c(=O)n2CC(=O)NC(C)C)ccc1F [Ca-25, 2-[3-(4-Fluoro-3-methoxyphenyl)-1-{4-[2-(4-methylpiperazin-1-yl)ethyl]phenyl}-5-oxo-1,5-dihydro-4H-1,2,4-triazol-4-yl]-N-(propan-2-yl)acetamide trifluoroacetate]",100 to 1000
7,"COc1cc(-c2nn(-c3ccc(CCN4CCN(C(C)=O)CC4)cc3)c(=O)n2CC(=O)NC(C)C)ccc1F [Ca-26, 2-[1-{4-[2-(4-Acetylpiperazin-1-yl)ethyl]phenyl}-3-(4-fluoro-3-methoxyphenyl)-5-oxo-1,5-dihydro-4H-1,2,4-triazol-4-yl]-N-(propan-2-yl)acetamide trifluoroacetate]",100 to 1000
8,"COc1cc(-c2nn(-c3ccc(CCN4CCC(C)(O)CC4)cc3)c(=O)n2CC(=O)NC(C)C)ccc1F [Ca-27, 2-[3-(4-Fluoro-3-methoxyphenyl)-1-{4-[2-(4-hydroxy4-methylpiperidin-1-yl)ethyl]phenyl}-5-oxo-1,5-dihydro-4H-1,2,4-triazol-4-yl]-N-(propan-2-yl)acetamide trifluoroacetate]",100 to 1000
9,"COc1cc(-c2nn(-c3ccc(CCN4C5CCC4CC(O)C5)cn3)c(=O)n2CC(=O)NC(C)C)ccc1F (centres unmarked) [Cb-4, 2-[3-(4-Fluoro-3-methoxyphenyl)-1-{5-[2-(3-hydroxy-8-azabicyclo[3.2.1]oct-8-yl)ethyl]pyridin-2-yl}-5-oxo-1,5-dihydro-4H-1,2,4-triazol-4-yl]-N-(propan-2-yl)acetamide]",8.6
10,"COc1cc(-c2nn(-c3ccc(CCN4C5CCC4COC5)cn3)c(=O)n2CC(=O)NC(C)C)ccc1F [Cb-5, 2-[3-(4-Fluoro-3-methoxyphenyl)-1-{5-[2-(3-oxa-8-azabicyclo[3.2.1]oct-8-yl)ethyl]pyridin-2-yl}-5-oxo-1,5-dihydro-4H-1,2,4-triazol-4-yl]-N-(propan-2-yl)acetamide]",16
11,"COc1cc(-c2nn(-c3ncc(CCN4CCOCC4)cn3)c(=O)n2CC(=O)NC(C)C)ccc1F [Cd-1, 2-[3-(4-Fluoro-3-methoxyphenyl)-1-{5-[2-(morpholin-4-yl)ethyl]pyrimidin-2-yl}-5-oxo-1,5-dihydro-4H-1,2,4-triazol-4-yl]-N-(propan-2-yl)acetamide]",166
12,"COc1cc(-c2nn(-c3ccc(CC(C)N4C5CCC4COC5)cc3)c(=O)n2CC(=O)NC(C)C)ccc1F (centres unmarked) [Cd-2, 2-[3-(4-Fluoro-3-methoxyphenyl)-1-{4-[2-(3-oxa-8-azabicyclo[3.2.1]oct-8-yl)propyl]phenyl}-5-oxo-1,5-dihydro-4H-1,2,4-triazol-4-yl]-N-(propan-2-yl)acetamide]",0.51
13,"COc1cc(-c2nn(-c3ccc(CC(C)N4C5CCC4COC5)cn3)c(=O)n2CC(=O)NC(C)C)ccc1F (centres unmarked) [Cd-3, 2-[3-(4-Fluoro-3-methoxyphenyl)-1-{5-[2-(3-oxa-8-azabicyclo[3.2.1]oct-8-yl)propyl]pyridin-2-yl}-5-oxo-1,5-dihydro-4H-1,2,4-triazol-4-yl]-N-(propan-2-yl)acetamide]",0.55
14,"COc1cc(-c2nn(-c3ccc(CN4CCN(C)CC4)cc3)c(=O)n2CC(=O)NC(C)C)ccc1F [Cd-4, 2-[3-(4-Fluoro-3-methoxyphenyl)-1-{4-[(4-methylpiperazin-1-yl)methyl]phenyl}-5-oxo-1,5-dihydro-4H-1,2,4-triazol-4-yl]-N-(propan-2-yl)acetamide]",863
15,"CC(C)NC(=O)Cn1c(-c2ccc(F)c(Cl)c2)nn(-c2ccc(CCN3CCCCC3)cc2)c1=O [Da-1, 2-[3-(3-Chloro-4-fluorophenyl)-5-oxo-1-{4-[2-(piperidin-1-yl)ethyl]phenyl}-1,5-dihydro-4H-1,2,4-triazol-4-yl]-N-(propan-2-yl)acetamide]",17
16,"CC(C)NC(=O)Cn1c(-c2ccc(F)c(Cl)c2)nn(-c2ccc(CCN3CC4(COC4)C3)cc2)c1=O [Da-3, 2-[3-(3-Chloro-4-fluorophenyl)-1-{4-[2-(2-oxa-6-azaspiro[3.3]hept-6-yl)ethyl]phenyl}-5-oxo-1,5-dihydro-4H-1,2,4-triazol-4-yl]-N-(propan-2-yl)acetamide]",32
17,"CC(C)NC(=O)Cn1c(-c2ccc(F)c(Cl)c2)nn(-c2ccc(CCN3CCCOCC3)cc2)c1=O [Da-4, 2-[3-(3-Chloro-4-fluorophenyl)-1-{4-[2-(1,4-oxazepan-4-yl)ethyl]phenyl}-5-oxo-1,5-dihydro-4H-1,2,4-triazol-4-yl]-N-(propan-2-yl)acetamide]",12
18,"CC(C)NC(=O)Cn1c(-c2ccc(F)c(Cl)c2)nn(-c2ccc(CCN3CCCCC3)cn2)c1=O [Db-1, 2-[3-(3-Chloro-4-fluorophenyl)-5-oxo-1-{5-[2-(piperidin-1-yl)ethyl]pyridin-2-yl}-1,5-dihydro-4H-1,2,4-triazol-4-yl]-N-(propan-2-yl)acetamide]",16
19,"CC(C)NC(=O)Cn1c(-c2ccc(F)c(Cl)c2)nn(-c2ccc(CCN3CCOCC3)cn2)c1=O [Db-2, 2-[3-(3-Chloro-4-fluorophenyl)-1-{5-[2-(morpholin-4-yl)ethyl]pyridin-2-yl}-5-oxo-1,5-dihydro-4H-1,2,4-triazol-4-yl]-N-(propan-2-yl)acetamide]",7.1
20,"CC(C)NC(=O)Cn1c(-c2ccc(F)c(Cl)c2)nn(-c2ccc(CCN3CC4(COC4)C3)cn2)c1=O [Db-3, 2-[3-(3-Chloro-4-fluorophenyl)-1-{5-[2-(2-oxa-6-azaspiro[3.3]hept-6-yl)ethyl]pyridin-2-yl}-5-oxo-1,5-dihydro-4H-1,2,4-triazol-4-yl]-N-(propan-2-yl)acetamide]",10
21,"CC(C)NC(=O)Cn1c(-c2ccc(F)c(Cl)c2)nn(-c2ccc(CCN3C4CCC3COC4)cn2)c1=O [Db-4, 2-[3-(3-Chloro-4-fluorophenyl)-1-{5-[2-(3-oxa-8-azabicyclo[3.2.1]oct-8-yl)ethyl]pyridin-2-yl}-5-oxo-1,5-dihydro-4H-1,2,4-triazol-4-yl]-N-(propan-2-yl)acetamide]",2.9
22,"CC(C)NC(=O)Cn1c(-c2cccc(C#N)c2)nn(-c2ccc(CCN3CCOCC3)cc2)c1=O [Ea-2, 2-[3-(3-Cyanophenyl)-1-{4-[2-(morpholin-4-yl)ethyl]phenyl}-5-oxo-1,5-dihydro-4H-1,2,4-triazol-4-yl]-N-(propan-2-yl)acetamide]",48
23,"CC(C)NC(=O)Cn1c(-c2cccc(F)c2)nn(-c2ccc(CCN3CCOCC3)cc2)c1=O [Fa-1, 2-[3-(3-Fluorophenyl)-1-{4-[2-(morpholin-4-yl)ethyl]phenyl}-5-oxo-1,5-dihydro-4H-1,2,4-triazol-4-yl]-N-(propan-2-yl)acetamide]",46
